Patent US7652014B2, “Substituted 6-cyclohexylalkyl substituted 2-quinolinones and 2-quinoxalinones as poly(ADP-ribose) polymerase inhibitors” (Janssen Pharmaceutica, priority 2003, dated 2010)

What was measured:
PARP-1 enzyme [1] = biological target: T1, PARP-1 enzyme (Homo sapiens, UniProt P09874); assay: In vitro filtration assay for PARP-1 inhibitory activity; format: biochemical; conditions: nicked DNA activated PARP-1, [32P]-NAD, histones; read-out: In vitro filtration assay pIC50 (converted)
T1 construct: made in house
Experimental: In Vitro Filtration Assay for PARP-1 Inhibitory Activity
Compounds of the present invention were tested in an in vitro filtration assay assessing PARP-1 activity (triggered in the presence of nicked DNA) by means of its histone poly (ADP-ribosyl)ation activity using [^32P]-NAD as ADP-ribosyl donor. The radioactive ribosylated histones were precipitated by trichloroacetic acid (TCA) in 96-well filterplates and the incorporated [^32P] measured using a scintillation counter A mixture of histones (stock solution: 5 mg/ml in H2O), NAD^+ (stock solution: 100 mM in H2O), and [^32P]-NAD^+ in incubation buffer (50 mM Tris/HCl, pH 8; 0.2 mM DTT; 4 mM MgCl2) was made. A mixture of the PARP-1 enzyme (5-10 μg/ml) and nicked DNA was also made. The nicked DNA was prepared as described in the in vitro SPA for PARP-1 inhibitory activity. Seventy-five μl of the PARP-1 enzyme/DNA mixture together with 1 μl of compound in DMSO and 25 μl of histones-NAD^+/[^32P]-NAD^+ mixture was added per well of a 96-well filterplate (0.45 μm, supplier Millipore). The final concentrations in the incubation mixture were 2 μg/ml for the histones, 0.1 mM for the NAD^+, 200 μM (0.5 μC) for the [^32P]-NAD^+ and 2 μg/ml for the nicked DNA. Plates were incubated for 15 min. at room temperature and the reaction was terminated by the addition of 10 μl ice cold 100% TCA followed by the addition of 10 μl ice-cold BSA solution (1% in H2O). The protein fraction was allowed to precipitate for 10 min. at 4° C. and plates were vacuum filtered. The plates were subsequently washed with, for each well, 1 ml of 10% ice cold TCA, 1 ml of 5% ice cold TCA and 1 ml of 5% TCA at room temperature. Finally 100 μl of scintillation solution (Microscint 40, Packard) was added to each well and the plates were transferred to a TopCountNXT™ (supplier: Packard) for scintillation counting and values were expressed as counts per minute (cpm). For each experiment, controls (containing PARP-1 enzyme and DMSO without compound), a blank incubation (containing DMSO but no PARP-1 enzyme or compound) and samples (containing PARP-1 enzyme and compound dissolved in DMSO) were run in parallel. All compounds tested were dissolved and eventually further diluted in DMSO. In first instance, compounds were tested at a concentration of 10^−5M. […] In each test, the blank value was subtracted from both the control and the sample values. The control sample represented maximal PARP-1 enzyme activity. For each sample, the amount of cpm was expressed as a percentage of the mean cpm value of the controls. When appropriate, IC50-values (concentration of the drug, needed to reduce the PARP-1 enzyme activity to 50% of the control) were computed using linear interpolation between the experimental points just above and below the 50% level. Herein the effects of test compounds are expressed as pIC50 (the negative log value of the IC50-value). As a reference compound, 4-amino-1,8-naphthalimide was included to validate the filtration assay.

PARP-1 enzyme [2] = biological target: T1, PARP-1 enzyme; assay: In vitro Scintillation Proximity Assay (SPA) for PARP-1 inhibitory activity; format: biochemical; conditions: nicked DNA activated PARP-1, [3H]-NAD+, biotinylated histones; read-out: In vitro SPA pIC50 (converted)
Experimental: Pharmacological Example In Vitro Scintillation Proximity Assay (SPA) for PARP-1 Inhibitory Activity
Compounds of the present invention were tested in an in vitro assay based on SPA technology (proprietary to Amersham Pharmacia Biotech).
In principle, the assay relies upon the well established SPA technology for the detection of poly(ADP-ribosyl)ation of biotinylated target proteins, i.e histones. This ribosylation is induced using nicked DNA activated PARP-1 enzyme and [^3H]-nicotinamide adenine dinucleotide ([^3H]-NAD^+) as ADP-ribosyl donor.
As inducer of PARP-1 enzyme activity, nicked DNA was prepared. For this, 25 mg of DNA (supplier: Sigma) was dissolved in 25 ml DNAse buffer (10 mM Tris-HCl, pH 7.4; 0.5 mg/ml Bovine Serum Albumine (BSA); 5 mM MgCl2.6H2O and 1 mM KCl) to which 50 μl DNAse solution (1 mg/ml in 0.15 M NaCl) was added. After an incubation of 90 min. at 37° C., the reaction was terminated by adding 1.45 g NaCl, followed by a further incubation at 58° C. for 15 min. The reaction mixture was cooled on ice and dialysed at 4° C. for respectively 1.5 and 2 hours against 1.5 l of 0.2 M KCl, and twice against 1.5 l of 0.01 M KCl for 1.5 and 2 h respectively. The mixture was aliquoted and stored at −20° C. Histones (1 mg/ml, type II-A, supplier: Sigma) were biotinylated using the biotinylation kit of Amersham and stored aliquoted at −20° C. A stock solution of 100 mg/ml SPA poly(vinyl toluene) (PVT) beads (supplier: Amersham) was made in PBS. A stock solution of [^3H]-NAD^+ was made by adding 120 μl of [^3H]-NAD^+ (0.1 mCi/ml, supplier: NEN) to 6 ml incubation buffer (50 mM Tris/HCl, pH 8; 0.2 mM DTT; 4 mM MgCl2). A solution of 4 mM NAD^+ (supplier: Roche) was made in incubation buffer (from a 100 mM stock solution in water stored at −20° C.). The PARP-1 enzyme was produced using art known techniques, i.e. cloning and expression of the protein starting from human liver cDNA. Information concerning the used protein sequence of the PARP-1 enzyme including literature references can be found in the Swiss-Prot database under primary accession number P09874. Biotinylated histones and PVT-SPA beads were mixed and pre-incubated for 30 min. at room temperature. PARP-1 enzyme (concentration was lot dependent) was mixed with the nicked DNA and the mixture was pre-incubated for 30 min. at 4° C. Equal parts of this histones/PVT-SPA beads solution and PARP-1 enzyme/DNA solution were mixed and 75 μl of this mixture together with 1 μl of compound in DMSO and 25 μl of [^3H]-NAD^+ was added per well into a 96-well microtiterplate. The final concentrations in the incubation mixture were 2 μg/ml for the biotinylated histones, 2 mg/ml for the PVT-SPA beads, 2 μg/ml for the nicked DNA and between 5-10 μg/ml for the PARP-1 enzyme. After incubation of the mixture for 15 min. at room temperature, the reaction was terminated by adding 100 μl of 4 mM NAD^+ in incubation buffer (final concentration 2 mM) and plates were mixed.
The beads were allowed to sediment for at least 15 min. and plates transferred to a TopCountNXT™ (Packard) for scintillation counting, values were expressed as counts per minute (cpm). For each experiment, controls (containing PARP-1 enzyme and DMSO without compound), a blank incubation (containing DMSO but no PARP-1 enzyme or compound) and samples (containing PARP-1 enzyme and compound dissolved in DMSO) were run in parallel. All compounds tested were dissolved and eventually further diluted in DMSO. […] In each test, the blank value was subtracted from both the control and the sample values. The control sample represented maximal PARP-1 enzyme activity. For each sample, the amount of cpm was expressed as a percentage of the mean cpm value of the controls. When appropriate, IC50-values (concentration of the drug, needed to reduce the PARP-1 enzyme activity to 50% of the control) were computed using linear interpolation between the experimental points just above and below the 50% level. […]

T1 sequence (P09874 whole entry): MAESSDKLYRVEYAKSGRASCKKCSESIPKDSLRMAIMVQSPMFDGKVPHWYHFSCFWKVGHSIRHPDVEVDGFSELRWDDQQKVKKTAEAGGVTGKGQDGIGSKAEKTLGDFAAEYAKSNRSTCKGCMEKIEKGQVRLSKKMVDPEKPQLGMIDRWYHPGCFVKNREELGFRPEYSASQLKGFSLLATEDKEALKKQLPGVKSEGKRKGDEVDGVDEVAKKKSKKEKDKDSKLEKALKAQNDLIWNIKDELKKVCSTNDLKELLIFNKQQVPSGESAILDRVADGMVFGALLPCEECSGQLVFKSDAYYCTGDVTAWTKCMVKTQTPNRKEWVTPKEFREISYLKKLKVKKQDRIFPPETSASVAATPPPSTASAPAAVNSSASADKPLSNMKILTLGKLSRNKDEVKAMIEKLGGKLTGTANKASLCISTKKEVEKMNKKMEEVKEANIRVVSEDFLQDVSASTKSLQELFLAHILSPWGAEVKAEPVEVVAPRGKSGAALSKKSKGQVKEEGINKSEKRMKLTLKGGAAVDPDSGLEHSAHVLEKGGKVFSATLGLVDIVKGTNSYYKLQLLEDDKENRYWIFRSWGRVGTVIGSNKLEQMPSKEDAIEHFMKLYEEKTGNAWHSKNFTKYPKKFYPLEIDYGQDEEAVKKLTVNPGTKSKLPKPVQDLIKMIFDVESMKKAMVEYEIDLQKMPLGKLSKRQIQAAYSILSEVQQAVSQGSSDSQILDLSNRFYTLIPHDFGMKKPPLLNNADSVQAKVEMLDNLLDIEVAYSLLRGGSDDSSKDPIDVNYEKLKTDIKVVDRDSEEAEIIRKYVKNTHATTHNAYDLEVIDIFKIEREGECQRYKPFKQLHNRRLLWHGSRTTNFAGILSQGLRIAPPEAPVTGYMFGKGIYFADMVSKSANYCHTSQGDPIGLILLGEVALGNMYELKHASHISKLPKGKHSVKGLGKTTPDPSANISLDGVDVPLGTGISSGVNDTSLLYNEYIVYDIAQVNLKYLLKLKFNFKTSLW

Row | IC50 (PARP-1 enzyme [1]) | IC50 (PARP-1 enzyme [2]) | melting point | Structure (SMILES)
1 | 1180 nM | 198 nM |  | CCc1cc2cc(C(c3cccnc3)N3CCC(=O)CC3)ccc2[nH]c1=O (stereo not drawn) [Co. No. 22]
2 | 2990 nM | 750 nM |  | CCc1cc2cc(C(NCCOC)C3CCCCC3)ccc2[nH]c1=O (stereo not drawn) [Co. No. 18]
3 | 6010 nM | 1110 nM |  | CCc1cc2cc(C(NCCN(C)C)C3CCCCC3)ccc2[nH]c1=O (stereo not drawn) [Co. No. 25]
4 | 3150 nM | 288 nM |  | CCc1cc2cc(C(O)C3CCCCC3)ccc2[nH]c1=O (stereo not drawn) [Co. No. 28]
5 | 568 nM | 232 nM | 218 °C | CCc1cc2cc(C(C3CCCCCC3)N3CCC(=O)CC3)ccc2[nH]c1=O (stereo not drawn) [Co. No. 2]
6 | 1330 nM | 277 nM |  | CCc1cc2cc(C(C3CC=CCC3)N3CCC(=O)CC3)ccc2[nH]c1=O (stereo not drawn) [Co. No. 24]
7 | 5420 nM | 841 nM |  | CCc1cc2cc([C@@H](NCCN(C)C)C3CCCCC3)ccc2[nH]c1=O [Co. No. 29]
8 | 1260 nM | 232 nM |  | CCc1cc2cc(C(c3ccsc3)N3CCC(=O)CC3)ccc2[nH]c1=O (stereo not drawn) [Co. No. 23]
9 | 5060 nM | 507 nM | 181 °C | CCc1cc2cc(C(CCN3CCN(C)CC3)C3CCCCC3)ccc2[nH]c1=O (stereo not drawn) [Co. No. 5]
10 | 2560 nM | 383 nM |  | CCc1cc2cc(C(C(CC)CC)N3CCC(=O)CC3)ccc2[nH]c1=O (stereo not drawn) [Co. No. 17]
11 | 349 nM | 329 nM | 172 °C | CCc1cc2cc(C(O)CN3CCCCC3)ccc2[nH]c1=O (stereo not drawn) [Co. No. 1]
12 | 2430 nM | 853 nM |  | CCc1cc2cc(C(C3CCCCC3)N3CCC(O)CC3)ccc2[nH]c1=O (stereo not drawn) [Co. No. 34]
13 |  | > 1000 nM |  | CCc1cc2cc(C(OCCN(C)C)C3CCCCC3)ccc2[nH]c1=O (stereo not drawn) [Co. No. 10]
14 | 2200 nM | 180 nM |  | CCc1cc2cc(C(O)C3CCN(Cc4ccccc4)CC3)ccc2[nH]c1=O (stereo not drawn) [Co. No. 27]
15 | 8260 nM | 863 nM |  | CCc1cc2cc(C(C3CCCCC3)N3CCC(NCc4cccnc4)CC3)ccc2[nH]c1=O (stereo not drawn) [Co. No. 31]
16 | 4210 nM | 832 nM |  | CCCCC(c1ccc2[nH]c(=O)c(CC)cc2c1)N1CCC(NCCOC)CC1 (stereo not drawn) [Co. No. 33]
17 | 2830 nM | 196 nM |  | CCc1cc2cc(C(c3ccsc3)N3CCC(NCCOC)CC3)ccc2[nH]c1=O (stereo not drawn) [Co. No. 32]
18 |  | 757 nM |  | CCc1nc2cc(C(C(C)C)N3CCC(=O)CC3)ccc2[nH]c1=O (stereo not drawn) [Co. No. 19]

Row | IC50 (PARP-1 enzyme [1]) | IC50 (PARP-1 enzyme [2]) | melting point | Structure (SMILES)
19 |  | 902 nM |  | CCc1cc2cc(C(C3CCCCC3)N3CCN(C)CC3)ccc2[nH]c1=O (stereo not drawn) [Co. No. 21]
20 | 2610 nM | 568 nM |  | CCc1cc2cc(C(=O)CN3CCOCC3)ccc2[nH]c1=O [Co. No. 36]
21 | 1350 nM | 508 nM | 194 °C | CCc1cc2cc(C(C3CCCCC3)N3CCC(O)(c4cncn4C)CC3)ccc2[nH]c1=O (stereo not drawn) [Co. No. 6]
22 |  | 94.6 nM | 194 °C | CCc1cc2cc(CN3CCN(Cc4ccccc4)CC3)ccc2[nH]c1=O [Co. No. 7]
23 |  | 861 nM | 163 °C | CCOC(=O)C1CCN(C(C)Cc2ccc3[nH]c(=O)c(CC)nc3c2)CC1 (stereo not drawn) [Co. No. 3]
24 | 1840 nM | 600 nM |  | CCc1cc2cc(C(SCCN(C)C)C3CCCCC3)ccc2[nH]c1=O (stereo not drawn) [Co. No. 20]
25 |  | 853 nM |  | CCc1cc2cc(CCN3CCC(NCCOC)CC3)ccc2[nH]c1=O [Co. No. 37]
26 |  | 536 nM |  | CCc1nc2cc(C(C(C)C)N3CCC(c4n[nH]c5cc(F)ccc45)CC3)ccc2[nH]c1=O (stereo not drawn) [Co. No. 26]
27 | 6730 nM | 873 nM | 122 °C | CCc1cc2cc(C(OCCN(C)C)C3CCCCC3)ccc2[nH]c1=O (stereo not drawn) [Co. No. 8]
28 | 1520 nM | 300 nM | 200 °C | CCc1cc2cc(C(C3CCCCC3)N3CCC4(CC3)CO4)ccc2[nH]c1=O (stereo not drawn) [Co. No. 4]
29 | 4380 nM | 614 nM | 115 °C | CCc1cc2cc([C@@H](OCCN(C)C)C3CCCCC3)ccc2[nH]c1=O [Co. No. 9]
30 | 785 nM | 184 nM | 196 °C | CCc1cc2cc(C(C3CC=CCC3)N3CCC(O)CC3)ccc2[nH]c1=O (stereo not drawn) [Co. No. 11]
31 | 9180 nM | 1280 nM |  | CCc1cc2cc([C@@H](C3CCCCC3)N3CCN(CCOC)CC3)ccc2[nH]c1=O [Co. No. 30]
32 | 1840 nM | 230 nM |  | CCc1cc2cc(C(CC(C)C)N3CCC(=O)CC3)ccc2[nH]c1=O (stereo not drawn) [Co. No. 16]
33 | 1840 nM | 388 nM |  | CCc1cc2cc(C(O)CN3CCN(C)CC3)ccc2[nH]c1=O (stereo not drawn) [Co. No. 14]
34 | 2540 nM | 288 nM |  | CCc1cc2cc(C(O)CN3CCOCC3)ccc2[nH]c1=O (stereo not drawn) [Co. No. 15]
35 | 2270 nM | 188 nM |  | CCc1cc2cc(C(c3cccs3)N3CCC(NCCOC)CC3)ccc2[nH]c1=O (stereo not drawn) [Co. No. 12]
36 | 3400 nM | 640 nM |  | CCc1cc2cc(C(C3CCCCC3)N3CCC(N4CCOCC4)CC3)ccc2[nH]c1=O (stereo not drawn) [Co. No. 35]
